In this assay the test system is kodecytes. The assay is described as follows: Complement induced cell lysis of kodecytes in pooled AB serum. The class given is cell-based. Conditions: for Abs 1: duplicate 1; for Abs 2: duplicate 2; for (A1 and A2): from duplicates; for Sensitivity of kodecytes to lysis compared with kodecytes prepared using construct 49: complement mediated autolysis; for Calculated %: percentage of cells lysed using standard curve; for Measured %: percentage of cells lysed, construct 49 set as 100; for Degree of lysis: qualitative. Here is the method:
Preparation of kodecytes Stock solutions of constructs (35, 47, 48 and 49) were prepared at a concentration of 1 mg/mL in a red blood cell (RBC) preservative solution (CELPRESOL™, CSL Limited). Prior to dilution each stock solution was vortexed for 45 seconds at room temperature (r.t.). A volume of 100 μL of diluted stock solution was added to a volume of 100 μL centrifugally packed RBCs (packed cell volume; PCV). The total volume of 200 μL suspended RBCs was incubated at 37° C. for 2 hours before washing with CELPRESOL™ and re-suspending the modified RBCs (“kodecytes”) at a concentration of 5% PCV in CELPRESOL™.
Prior to use kodecytes were washed and re-suspended 5% PCV in phosphate buffered saline (PBS). Uniformity of concentration of RBCs was confirmed by adding a volume of 40 μL of kodecyte suspension to a volume of 1 mL of Drabkins solution and the absorbance measured at 540 nm against Drabkins solution (blank). Variations in measured absorbances was reduced to less than 10% by adjustment of suspending volume.
The ability of constructs to induce complement mediated autolysis was evaluated by a method analogous to that described in the publication of Henry and Komarraju (2012). For the present studies kodecytes prepared using construct 49 were used as a 100% lysis control. A volume of 200 μL pooled AB serum and a volume of 100 μL kodecytes prepared using construct 49 at a concentration of 750 μg/mL was used as the 100% lysis control. A volume of 200 μL pooled AB serum and a volume of 100 μL O group RBCs (prepared as kodecytes without the addition of construct) was used as the 0% lysis control. To measure the ability of constructs to induce complement mediated autolysis of kodecytes volumes of 200 μL of pooled AB serum were dispensed into duplicate sets of test tubes. A volumes of 100 μL kodecytes was added to the tubes before incubation at 37° C. for 1 hour. Following incubation a volume of 1 μL ethylenediaminetetraacetic acid (EDTA) as its dipotassium salt
was added to each to each test tube to provide a final concentration of 0.1 mM EDTA. The test tubes were then centrifuged and the characteristics of the sedimented RBCs and supernatant observed (Table 2 and FIG. 2). In addition a volume of 160 μL of the cell free supernatant was removed and added to a volume of 1 mL of Drabkins solution. The absorbance of the solution was then measured at 540 nm against a volume of 160 μL pooled AB serum added to a volume of 1 mL of Drabkins solution (blank). The absorbance of the supernatant was calculated as a percentage of the initial absorbance of the suspension of kodecytes. The percentage of cells lysed was calculated against a standard curve.

[1] abbreviates: absorbance 540 nm of supernatant, concentration not given.
[2] abbreviates: absorbance 540 nm, concentration not given.
The mark [3] stands for this setting: pooled AB serum, 37° C., 1 hour, construct concentration not given.
Setting [4] is: absorbance 540 nm, 100% lysis control (construct 49 at 750 μg/mL).

As for Galili-CMG2-Ad-DOPE [construct 47], under setting [1], the “Abs 1” value is “.224” and the “Abs 2” value was “.243”. Under setting [2], the “(A1 and A2)” value is recorded as “.234”. In addition, the “Sensitivity of kodecytes to lysis compared with kodecytes prepared using construct 49” value (pooled AB serum) is recorded as “somewhat more sensitive”. Also, under “concentration not given”, the Calculated % is 65% and the Measured % turned out to be 128%. Further, under setting [3], the Degree of lysis result is “Partial”.
With `CCCCCCCC/C=C\CCCCCCCC(=O)OCC(COP(=O)(O)OCCNC(=O)CCCCC(=O)NCCCO[C@@H]1OC(CO)[C@@H](O[C@@H]2OC(CO)[C@H](O)C(O[C@H]3OC(CO)[C@H](O)C(O)C3NC(C)=O)C2O)C(O)C1NC(C)=O)OC(=O)CCCCCCC/C=C\CCCCCCCC` (stereo partly shown) [construct 48, GalNAcα1-3Galβ1-4GlcNAc-Ad-DOPE], under setting [1], the “Abs 1” value is “.349” and the “Abs 2” value is “.345”. Moreover, the “(A1 and A2)” value under setting [2] is reported as “.347”. Besides, the “Sensitivity of kodecytes to lysis compared with kodecytes prepared using construct 49” value (pooled AB serum) was “approximately twice as sensitive”. Where the note is “concentration not given”, the Calculated % was 95% and the Measured % is 190%. In addition, the Degree of lysis entry under setting [3] is on record as “Complete”.
As for “Galα1-3Galβ1-4GlcNAc-Ad-DOPE [construct 49]”, the “Abs 1” value is, setting by setting: under setting [1], “.178”; under setting [4], “.303”. The “Abs 2” value by setting is: under setting [1], “.187”; under setting [4], “.310”. For the same compound, the “(A1 and A2)” value is listed as “.307” under setting [4] and “.183” under setting [2]. Besides, the Calculated % is 85% (100% lysis control (construct 49 at 750 μg/mL)) and 51% (concentration not given). Moreover, the Measured % result (concentration not given) is “Set as 100%”. Besides, the Degree of lysis entry is “Complete” (100% lysis control: kodecytes prepared using construct 49 at 750 μg/mL) and “Partial” under setting [3].

The record behind these values is patent US20210139540A1, “MULTIVALENT LIGAND-LIPID CONSTRUCTS” (priority 2014, published 2021).
